Measurements published in EP2608783B1, “USE OF GLYCYRRHETINIC ACID, GLYCYRRHIZIC ACID AND RELATED COMPOUNDS FOR PREVENTION AND/OR TREATMENT OF PULMONARY FIBROSIS” (Zhang, Lurong, priority 2010, dated 2012).

Tests used:
IR-induced pneumonitis [1] = assay: Clinical case: GLA tablets in a lung cancer patient receiving 2nd IR treatment; assay type: in vivo; details: one patient
Experimental: In collaboration with radiation oncologists at the First Affiliated Hospital of Fujian Medical School in China, GLA tablets (produced by Minophagen Co. in Japan and available in pharmacies in China) were administered to a patient who received their 2nd IR treatment for lung cancer. […] To control the progression of pneumonitis, they received dexamethasone treatment. Due to tumor re-growth 9 months after their 1st IR treatment, they received a 2nd IR treatment with warnings that IR may worsen pneumonitis. In order to mitigate IR-induced lung injury, GLA was administered at a dose of 150 mg per day (equivalent to GA about 85 mg per day) starting from the date of 2nd IR treatment for 3 months. The result was unexpectedly surprising.

[2] = test system: inflammatory mediators (IMs), including IL1a, TNFa, PF4 and VCAM-1; assay: Inflammatory mediators in lung homogenates by ELISA, acute phase of IR-induced pneumonitis; assay type: in vivo, C57BL/6 fibrosis-prone mice; details: 2.5 days after thoracic IR at 15 Gy, compared to vehicle-treated mice, p<0.05
Experimental: Briefly, C57BL/6 fibrosis-prone mice received a single-dose of thoracic IR at 15 Gy with a dose rate of 1.9 Gy/min. Six hours after IR exposure, the mice were divided into the following treatment groups: 1) normal (received 0 Gy; no treatment); 2) vehicle-treated; 3) GA-treated (30-40 mg/kg/ q.o.d) (i.e. every other day) (the GA dosage used herein was derived from the effective dosage for humans (3-4 mg/kg), which is typically 6-10 times lower than that of mice); 4) dexamethasone-treated (Positive Control 1) (Dex, 3 mg/kg, i.m. or p.o. qod); 5) amifostine-treated (Positive Control 2) (Ami, 200 mg/kg/ i.v, 0.5 hr prior to irradiation); and 6) celebrex-treated (Positive Control 3) (30 mg/kg, po, qod).
The mice were sacrificed 2.5 days after IR exposure, and fresh lung tissue homogenates were prepared using lysis buffer mixed with protenase inhibitor cocktails. After protein concentration was adjusted to 1 mg/ml, the fresh lung homogenates were added to ELISA plates at a concentration of 100 µl/well. The levels of inflammatory mediators were measured by ELISA.

IR-induced pneumonitis [3] = assay: Lung morphology: plasma exudation and inflammatory cell infiltration, acute phase of IR-induced pneumonitis; assay type: in vivo, C57BL/6 fibrosis-prone mice; details: 2.5 days after thoracic IR at 15 Gy
Experimental: Briefly, C57BL/6 fibrosis-prone mice received a single-dose of thoracic IR at 15 Gy with a dose rate of 1.9 Gy/min and were treated as described in Example 2. The mice were sacrificed 2.5 days after IR exposure, and lung tissues were harvested and analyzed for morphological changes.

SP-D and IL1a = assay: Plasma levels of SP-D and IL1a, acute phase of IR-induced pneumonitis; assay type: in vivo, C57BL/6 fibrosis-prone mice; details: 2.5 days after thoracic IR at 15 Gy; P<0.05
Experimental: IR damages lung epithelium and endothelium cells, and causes dysfunction of tight junction, increased cellular permeability, and the loss of integrity of the alveolar-capillary barrier. As a result, SP-D and ILla abnormally enter into the blood from inflamed pulmonary tissue, leading to elevated plasma levels of SP-D and IL1a. In this Example, C57BL/6 fibrosis-prone mice received a single-dose of thoracic IR at 15 Gy with a dose rate of 1.9 Gy/min and were treated as described in Example 2. The mice were sacrificed 2.5 days after IR exposure, and plasma levels of SP-D and IL1a were measured.

IR-induced pneumonitis [4] = assay: Sub-acute phase of IR-induced pneumonitis: lung tissue and bronchoalveolar lavage fluid (BALF) assays; assay type: in vivo, C57BL/6 fibrosis-prone mice
Experimental: Briefly, C57BL/6 fibrosis-prone mice received a thoracic IR and were treated as described in Example 2. The mice were sacrificed 17 days after IR exposure, and lung tissues were harvested. Bronchoalveolar lavage fluid (BALF) assays were performed.

[5] = test system: IL1a, TNFa, lymphotactin and p-selectin; assay: Inflammatory mediators, GA given 24 hours after IR exposure; assay type: in vivo, mice; details: GA administered 24 hours after IR exposure; thoracic IR at 5, 10 and 15 Gy
Experimental: The administration of GA 24 hours after IR exposure can effectively block the surge in inflammatory responses.

[6] = test system: IR-induced pulmonary fibrosis; assay: Respiratory rate (rodent ventilator with pressure plethysmograph) in IR-induced pulmonary fibrosis; assay type: in vivo, mice; details: GA 30-40 mg/kg q.o.d. or twice/week for 3 months; 7 months after IR at 15 Gy, 5 months after IR at 18 Gy; P<0.05
Experimental: Mice exposed to thoracic IR develops pulmonary fibrosis 6 months after IR exposure at 18 Gy, 8 months after IR exposure at 15 Gy, and 10 months after IR exposure at 12.5 Gy. To access the treatment effects of GA on lung fibrosis and lung function, the respiratory rate, lung density, and lung compliance of the mice were determined. To assess improvement on respiratory function, mice exposed to thoracic IR at 15 Gy were treated with GA (30-40 mg/kg) q.o.d. or twice/week for 3 months. Mouse respiratory rate was measured using a Harvard rodent ventilator connected to a pressure plethysmograph.

[7] = test system: IR-induced pulmonary fibrosis; assay: Lung density by cone beam CT scan (CBCT) in IR-induced pulmonary fibrosis; assay type: in vivo, mice; details: for abnormal increase in lung density: 7.5 months after IR exposure at 15 Gy (Figure 14), P<0.05
Experimental: To assess effects of GA on lung density, cone beam CT scan (CBCT) of mouse lungs was performed. CBCT provides a complete 3D 650×650×428 scan (i.e. 428 slices) of the lungs with isotropic resolution at 270 µm (central slice shown in Fig. 11) in 30 seconds. The scanner achieves a CT density sensitivity of ∼[…], and thus, changes in lung density can be discerned. The CBCT imaging data were further analyzed using MATLAB software. The lungs were automatically segmented (Fig. 12A) and a 3D image was generated for each mouse lung (Fig. 12B). To reduce the effect of cardiac motion on the mean value of lung density, boundaries of the lungs were not used for analysis. A histogram of voxel intensity (pulmonary tissue density) of each mouse was created (Fig. 13).

[8] = test system: IR-induced pulmonary fibrosis; assay: Lung compliance (plethysmograph pressure-volume measurements); assay type: in vivo, mice; details: 6.5 months after IR exposure at 15 Gy; P<0.05
Experimental: To assess the effects of GA on lung compliance, mice were anesthetized and their trachea were surgically exposed and incised. An 18-gauge, 1 cm stainless steel tube was inserted into the trachea and secured with surgical sutures. The respiratory rate and tidal volume of the mice were measured by a Harvard rodent ventilator. The average respiratory rate was 150 breaths per minute and the tidal volume was adjusted according to the weight (0.01 ml per gram body weight). The mice were then placed in a plethysmograph for pressure-volume measurements.

IR-induced fibrosis = assay: Lung histology (H&E stain, trichrome blue collagen stain) in IR-induced fibrosis; assay type: in vivo, mice; details: GA 40 mg/kg/q.o.d. for 3 months; 7 months after IR exposure at 15 Gy
Experimental: Briefly, mice treated with GA (40 mg/kg/q.o.d.) for 3 months were sacrificed 7 months after IR exposure at 15 Gy, and lung tissue specimens were stained using hematoxylin and eosin (H&E) stain. […] To assess whether GA reduces abnormal collagen deposition in lungs, lung tissue specimen was stained with collagen-binding trichrome blue dye.

hydroxyproline; TGFβ = assay: Hydroxyproline and TGFβ levels in lungs; assay type: in vivo, mice
Text: The reduction of collagen deposition was further analyzed by measuring the levels of hydroxyproline, a key component of collagen.

[9] = Long-term toxicity observation (activity, fur morphology, body weight); assay type: in vivo
Text: No mouse died during GA treatment.

growth hormone (GH) = assay: Plasma growth hormone by ELISA during long-term treatment
Experimental: In addition, plasma levels of growth hormone (GH) were measured using ELISA at Weeks 6, 7, and 10 after GA treatments.

[10] = test system: ACTH (adrenocorticotropic hormone); details: in vivo
Experimental: The chemical structure of GA is similar to that of cortisol. Thus, this Example investigates whether the long-term use of GA would affect the production of cortisol and cause side effects. The plasma levels of ACTH (adrenocorticotropic hormone), a cortisol-releasing hormone, were measured using ELISA at Weeks 6, 7, and 10 after GA-treatments (40 mg/kg, qod, p.o).

pulmonary fibrosis = assay: Inventors' observation on dexamethasone in pulmonary fibrosis; assay type: in vivo; details: compared to the non-treated controls
[11] = 17 days after IR exposure at 15 Gy, P<0.05
[12] = 17 days after IR exposure, P<0.05

In the case of `CC1(C)[C@@H](O[C@H]2O[C@H](C(=O)O)[C@@H](O)[C@H](O)[C@H]2O[C@@H]2O[C@H](C(=O)O)[C@@H](O)[C@H](O)[C@H]2O)CC[C@]2(C)[C@H]3C(=O)C=C4[C@@H]5C[C@@](C)(C(=O)O)CC[C@]5(C)CC[C@@]4(C)[C@]3(C)CC[C@@H]12` [GLA, glycyrrhizic acid], the “symptoms of pneumonitis or fibrosis” value (IR-induced pneumonitis [1]; 150 mg per day for 3 months from date of 2nd IR treatment) is reported as “did not exhibit any symptom of pneumonitis or fibrosis” and the “lung density (CT)” value (IR-induced pneumonitis [1]; CT results of 1st versus 2nd IR treatment (Figure 20)) is reported as “significantly reduced”.

In the case of `CC1(C)[C@@H](O)CC[C@]2(C)[C@H]3C(=O)C=C4[C@@H]5C[C@@](C)(C(=O)O)CC[C@]5(C)CC[C@@]4(C)[C@]3(C)CC[C@@H]12` [GA, glycyrrhetinic acid], the “levels of inflammatory mediators (IMs), including IL1a, TNFa, PF4 and VCAM-1” value (“levels of inflammatory mediators (IMs)” below) [2] is reported as “effectively reduced”, the “plasma exudation and inflammatory cell infiltration into the interstitial space” value (IR-induced pneumonitis [3]) is reported as “potently suppressed” and the “plasma levels of IL1a” value (SP-D and IL1a) is reported as “effectively reduced”. The “plasma levels of SP-D” value (SP-D and IL1a) was “effectively reduced”, the “infiltration of neutrophils into the interstitial fluid” value (IR-induced pneumonitis [4]; 17 days after IR exposure at 15 Gy) was “suppression” and the “level of neutrophils infiltrated into the bronchoalveolar lavage fluid” value (IR-induced pneumonitis [4]; [11]) was “reduced”. The “myeloperoxidase (MPO) activity in (BALF)” value (IR-induced pneumonitis [4]; [11]) was “reduced”, the level of lymphotactin (IR-induced pneumonitis [4]; [12]) was “reduced” and the level of p-selectin (IR-induced pneumonitis [4]; [12]) was “reduced”. For the same compound, the “levels of key inflammatory mediators including IL1a, TNFa, lymphotactin and p-selectin” value [5] was “potently reduced”, the respiratory rate [6] was “effectively reduced” and the “abnormal increase in lung density” value [7] was “significantly reduced”. The “Mean Density (HU)” value ([7]; lung density, 1 year post IR exposure at 18 Gy) was -458 HU, the lung compliance [8] was “potently, and mostly effectively, enhanced” and the “collagen deposition caused by IR exposure (trichrome blue dye)” value (IR-induced fibrosis) was “reduces”. For the same compound, the “lung morphology (H&E stain)” value (IR-induced fibrosis) was “near-normal morphology”, the “hydroxyproline levels in the lungs” value (hydroxyproline; TGFβ; compared to IR + vehicle control, P<0.05) was “reduced” and the “level of TGFβ” value (hydroxyproline; TGFβ; pro-fibrotic factor, Figure 18B) was “reduced”. For the same compound, the death during treatment ([9]; long-term use) was “No mouse died”, the “side effects of long-term use” value ([9]; mouse, in vivo) was “little side effects” and the “plasma GH level” value (growth hormone (GH); in vivo) was “increased”.

In the case of `NCCCNCCSP(=O)(O)O` [amifostine], the “levels of inflammatory mediators (IMs)” value [2] is reported as “extent of inhibition by GA was comparable”.

With `Cc1ccc(-c2cc(C(F)(F)F)nn2-c2ccc(S(N)(=O)=O)cc2)cc1` [celebrex, reference compound] the “levels of inflammatory mediators (IMs)” value [2] was “extent of inhibition by GA was comparable”, the “abnormal increase in lung density” value [7] was “reduction in lung density by GA is more potent” and the “loss of body weight (BW)” value ([9]; 7.5 months post IR exposure at 15 Gy, vehicle-treated mice lost 6-7 grams) was “less severe loss of BW”.

In the case of `C[C@@H]1C[C@H]2[C@@H]3CCC4=CC(=O)C=C[C@]4(C)[C@@]3(F)[C@@H](O)C[C@]2(C)[C@@]1(O)C(=O)CO` [dexamethasone], the “reduction in ACTH levels” value [10] is reported as 10-50 fold, the “plasma GH level” value (growth hormone (GH); measured at Weeks 6, 7, and 10) is reported as “increased” and the “effect on pulmonary fibrosis” value (pulmonary fibrosis) is reported as “worsening of pulmonary fibrosis”.
